# Results published in US7094809B2, “Method of treating subject infected with Neisseria gonorrhea” (Northeastern Ohio Universities College of Medicine, priority 2000, dated 2006).
# Where two headings read alike, the source gives them in different places.
# What was measured:
# [1] = test system: HSV-1; assay: HSV-1 plaque assay, infected Vero cells, moi 1 (Example 3); format: cell-based; settings: 50 μM, data not shown
# Experimental: Cultures of African green monkey kidney cells (Vero) cells, obtained from the American Type Culture Collection, Rockville, Md. were grown to confluence in Medium 199 supplemented with 5% fetal bovine serum, 0.075% NaHCO3, and 50 μg/ml gentamycin sulfate in 25 cm^2 tissue culture flasks. Cells were infected with HSV-1 at a multiplicity of infection (moi) of one and incubated at room temperature for one hour to allow for virus attachment to and penetration of the cell. Under these conditions, approximately half of the cells are infected with virus. Thereafter, the cultures were rinsed three time with media and incubated in medium containing 50 μM or 75 μM 4, 4′-dihydroxytolan prepared in 0.2% dimethyl-sulfoxide (DMSO). Controls were treated identically, but were incubated without the dihyroxylated tolan. For purposes of comparison, HSV cell were also inoculated in the presence of 52.5 μM 4,4′-dihydroxystilbene. Due to the higher cell toxicity of the stilbene, cells were not incubated in the presence of 75 μM dihydroxystilbene.
# Upon addition of the medium to the cultures and at 24 hours time periods thereafter, i.e., 0 hours, 24 hours, 48 hours, and 72 hours after addition of the drug, cells and medium were frozen at −70° C. Samples were then thawed, sonicated and titrated on Vero cells to determine the number of plaque forming units (pfu's) of virus produced by each culture.
# [2] = test system: Vero cells; assay: MTT colorimetric cell toxicity assay; format: cell-based, African green monkey
# Experimental: Cell toxicity of the tolans 4,4′-dihydroxytolan (“Tolan-5”), 3,4′,5-trihydroxytolan (“Tolan-10”) and 4-hydroxy-4′-trifluoromethyltolan (“Tolan-11”) was determined using an MTT assay. In this assay, cells are exposed to MTT, 3-(4,5-dimethylthiazol-2-yl)-2,5-diphenyltetrazolium bromide, which is taken into the cells and reduced by mitochondrial dehydrogenase to a purple formazan, a large molecule which is unable to pass through intact cell membranes, and therefore accumulates in healthy cells. The ability of cells to reduce MTT is an indication of mitochondrial integrity and activity, which may be interpreted as a measure of viability. Solubilization of the cells results in the liberation of the product which can readily be detected spectrophotometrically.
# Various concentrations of Tolan-5, Tolan-10 and Tolan-11 were added to 96 well tissue culture plates that had been seeded with Vero cells. The plates were then incubated at 37° C. in 5% CO2/95% air for 24, 48 and 72 hours. At the end of each time point, 50 μl of MTT (1 mg/ml) was added to the tissue culture plates which were then incubated for an additional four hours. At the end of that time, dimethyl sulfoxide (DMSO) was added to dissolve the cells and formazan, and the plates were read spectrophotometrically at 540 nm. […] Presented in Table I below are the toxicity results for Tolan-5, Tolan-10, and Tolan-11 measured at 24, 48 and 72 hours of treatment.
# [3] = test system: HSV-1; assay: Inhibition of HSV-1 replication in vitro, plaque assay (Example 9); format: cell-based; settings: for HSV-1 production: Vero cells, moi 1, up to 72 hours
# Experimental: Tissue culture cells were infected with HSV-1 and incubated in solutions containing Tolan-5, Tolan-10 and Tolan-11. The concentrations used ranged from one-half to three-quarters of the calculated CD50 for the respective tolan at 48 hours of treatment. Specifically, Vero cells were infected with HSV-1 at a multiplicity of infection of one for one hour. At the end of that time, the cultures were rinsed with media and fresh media containing various concentration of the respective tolan were added. Infected control cultures were incubated in media lacking hydroxylated tolan. At 1, 24, 48, and 72 hours after infection, samples were frozen at −70° C. until assayed for new virus production. Virus production was quantified by the plaque assay for each time point of infection. The results, which are expressed as plaque forming units per milliliter (pfu/ml).
# [4] = test system: HSV-1; assay: HSV-1 skin scratch infection in hairless mice, topical treatment (Example 10); format: in vivo, SKH-1 hairless mice; settings: for severity of HSV lesions: topical, three times a day for five days, versus untreated or DMSO only; for animals that perished within 11 days after infection: controls 50% died
# Experimental: Female SKH-1 hairless mice 4–5 weeks old were lightly anesthetized and a scratch approximately 2–3 mm long and 0.25 mm deep was made on the lateral dorsal aspect of the neck. The scratch was infected with 10^6 plaque forming units of HSV-1. One hour later, the infected scratch area was treated with a 5% or 10% solution of Tolan-10 in DMSO. This treatment was repeated three times a day for five days. There were at least six mice in each treatment group. Untreated mice and mice treated with DMSO only were used as controls. Beginning on day 1 and continuing for 10–11 days, the scratch site was examined daily for evidence of an HSV infection and scored according to the following schedule: • 0=no visible change on skin by scratch • 1+=papules around scratch • 2+=papules around scratch ulcerate with scab formation • 3+=ulcerative zosterform spread along peripheral nerves to flank of animal • 4+=ulcerative lesions open on flank • 5+=death/sacrifice The data was grouped according to treatment and statistically analyzed for significance.
# [5] = test system: Neisseria gonorrhea CDC 98; assay: Growth inhibition on chocolate agar plates; format: cell-based
# Experimental: (§1) Various concentrations of the trihydroxytolan Tolan-10 were incorporated into chocolate agar plates that were prepared using standard procedures. The trihydroxylated tolan was first dissolved in DMSO and medium and then added to liquid chocolate agar, which was then poured into petri plates and allowed to solidify. The highest concentration of DMSO in the agar was 0.5%. Control plates containing chocolate agar and DMSO at a final concentration of 0.5% were also prepared.
# Neisseria gonorrhea CDC 98 was obtained from Difco Laboratories. The authenticity of the bacterium was confirmed utilizing standard microbiological techniques of identification. Cultures of the bacterial isolate were inoculated onto fresh plates of solidified chocolate agar and then 24 hours later, a suspension was made from isolated colonies.
# (§2) 10 μl aliquots of the suspension were spread evenly across the surface of solidified control chocolate agar lacking tolan and the surface of solidified chocolate agar containing Tolan-10 at final concentrations ranging from 1 to 125 μg/ml. Thereafter, the agar plates were incubated at 37° C. with or without 5% CO2. All plates were visually examined for growth of the bacterium 24 hours later to determine the concentration of the tri-hydroxylated tolan that inhibits growth by 50% (MIC50) as well as the concentration which inhibits any visible growth (MIC100).
# [6] = test system: Candida albicans; assay: Growth inhibition on agar plates; format: cell-based
# Experimental: as §1, §2
# (§3) The effect of the same concentrations of Tolan-10 on the growth of Escherichia coli, Staphylococcus aureus, Streptococcus pyogenes, Pseudomonas aeruginosa, Neisseria meningiditis and Candida albicans was also determined. […] The IC50 value of the tri-hydroxylated tolan for this bacterium at 24 hours of treatment was 50 μg/ ml and the IC100 value was 100 μg/ml. In contrast, Tolan 10, at the highest concentration tested, had no effect on the other microorganisms listed.
# [7] = test system: Escherichia coli; assay: Growth inhibition on agar plates; format: cell-based
# Experimental: as §1, §2, §3
# [8] = test system: Neisseria meningiditis; assay: Growth inhibition on agar plates; format: cell-based
# Experimental: as §1, §2, §3
# [9] = test system: Pseudomonas aeruginosa; assay: Growth inhibition on agar plates; format: cell-based
# Experimental: as §1, §2, §3
# [10] = test system: Staphylococcus aureus; assay: Growth inhibition on agar plates; format: cell-based
# Experimental: as §1, §2, §3
# [11] = test system: Streptococcus pyogenes; assay: Growth inhibition on agar plates; format: cell-based
# Experimental: as §1, §2, §3
structure (smiles),measurement,setting,value
"Oc1ccc(C=Cc2ccc(O)cc2)cc1 [4,4′-dihydroxystilbene, reference compound]",effect on virus production,[1],no effect
"Oc1ccc(C#Cc2cc(O)cc(O)c2)cc1 [Tolan-10, 3,4′,5-trihydroxytolan]",toxicity (in words),[2],very little toxicity
same,CD50,[2]; 24 hours,>200 µM
same,CD50,[2]; 48 hours,>200 µM
same,CD50,[2]; 72 hours,>200 µM
same,estimated CD50,[2]; summary of Table 1,> 200 μm
same,effectiveness against the virus over concentrations,[3]; 350 μm to 175 μm,equally effective against the virus at all concentrations
same,HSV-1 production,[3],inhibited HSV-1 production
same,severity of HSV lesions,[4]; 5% solution in DMSO,significantly reduced the severity of HSV lesions
same,animals that perished within 11 days after infection,[4]; 5%,none
same,severity of HSV lesions,[4]; 10% solution in DMSO,significantly reduced the severity of HSV lesions
same,animals that perished within 11 days after infection,[4]; 10%,none
same,effectiveness of 10% compared with 5%,"[4]; particularly days 6–10, not significantly different",slightly more effective than 5% Tolan-10
same,IC100 value,[5]; 24 hours of treatment,100 µg/mL
same,IC100,"[5]; N. gonorrhoeae, agar, 24 hours",100 mg/L
same,IC50,"[5]; N. gonorrhoeae, agar, 24 hours, read-out: IC50",50 µg/mL
same,IC50,"[5]; Neisseria, CDC98, 24 hours of treatment, read-out: IC50 value",50 µg/mL
same,selectivity of growth inhibition,[5]; versus the other microorganisms tested,selectively inhibited
same,IC100,[6]; C. albicans,>125 mg/L
same,IC50,"[6]; Candida albicans, C. albicans",> 125 µg/mL
same,effect on growth,[6]; highest concentration tested,no effect
same,IC100,[7]; E. coli,>125 mg/L
same,IC50,"[7]; Escherichia coli, E. coli",> 125 µg/mL
same,effect on growth,[7]; highest concentration tested,no effect
same,IC50,"[8]; Neisseria, N. meningitides",> 125 µg/mL
same,effect on growth,[8]; highest concentration tested,no effect
same,IC100,[9]; P. aeruginosa,>125 mg/L
same,IC50,"[9]; Pseudomonas aeruginosa, P. aeruginosa",> 125 µg/mL
same,effect on growth,[9]; highest concentration tested,no effect
same,IC100,[10]; S. aureus,>125 mg/L
same,IC50,"[10]; Staphylococcus aureus, S. aureus",> 125 µg/mL
same,effect on growth,[10]; highest concentration tested,no effect
same,IC100,[11]; S. pyogenes,>125 mg/L
same,IC50,"[11]; Streptococcus pyogenes, S. pyogenes",> 125 µg/mL
same,effect on growth,[11]; highest concentration tested,no effect
"Oc1ccc(C#Cc2ccc(C(F)(F)F)cc2)cc1 [Tolan-11, 4-hydroxy-4′-trifluoromethyltolan]",toxicity (in words),[2],more toxic than the other hydroxylated tolans
same,CD50,[2]; 24 hours,72.1 µM
same,CD50,[2]; 48 hours,48.2 µM
same,CD50,[2]; 72 hours,47.1 µM
same,HSV-1 production,[3],inhibited HSV-1 production
same,effect on HSV-1 production,[3]; concentration of less than 48 μm,little to no effect
